Test results: patent publication US12421229B2, “Hydropyrido[1,2-α]pyrazine compounds for the treatment of autoimmune disease” (Hoffmann-La Roche Inc., priority 2019, dated 2025)
pIC50: −log10 of the molar value.

The molecules below were run against T1, human TLR9 (Homo sapiens, UniProt Q9NR96) (assay: HEK293-Blue-hTLR-9 cells assay). Settings: HEK293-Blue-hTLR9 cells, ODN2006 stimulation, 20 hrs, SEAP reporter; read-out: HEK/hTLR9 IC50.
T1 construct: host or cells: HEK293 (HEK-Blue hTLR9)
T1 sequence (Q9NR96 26-1032): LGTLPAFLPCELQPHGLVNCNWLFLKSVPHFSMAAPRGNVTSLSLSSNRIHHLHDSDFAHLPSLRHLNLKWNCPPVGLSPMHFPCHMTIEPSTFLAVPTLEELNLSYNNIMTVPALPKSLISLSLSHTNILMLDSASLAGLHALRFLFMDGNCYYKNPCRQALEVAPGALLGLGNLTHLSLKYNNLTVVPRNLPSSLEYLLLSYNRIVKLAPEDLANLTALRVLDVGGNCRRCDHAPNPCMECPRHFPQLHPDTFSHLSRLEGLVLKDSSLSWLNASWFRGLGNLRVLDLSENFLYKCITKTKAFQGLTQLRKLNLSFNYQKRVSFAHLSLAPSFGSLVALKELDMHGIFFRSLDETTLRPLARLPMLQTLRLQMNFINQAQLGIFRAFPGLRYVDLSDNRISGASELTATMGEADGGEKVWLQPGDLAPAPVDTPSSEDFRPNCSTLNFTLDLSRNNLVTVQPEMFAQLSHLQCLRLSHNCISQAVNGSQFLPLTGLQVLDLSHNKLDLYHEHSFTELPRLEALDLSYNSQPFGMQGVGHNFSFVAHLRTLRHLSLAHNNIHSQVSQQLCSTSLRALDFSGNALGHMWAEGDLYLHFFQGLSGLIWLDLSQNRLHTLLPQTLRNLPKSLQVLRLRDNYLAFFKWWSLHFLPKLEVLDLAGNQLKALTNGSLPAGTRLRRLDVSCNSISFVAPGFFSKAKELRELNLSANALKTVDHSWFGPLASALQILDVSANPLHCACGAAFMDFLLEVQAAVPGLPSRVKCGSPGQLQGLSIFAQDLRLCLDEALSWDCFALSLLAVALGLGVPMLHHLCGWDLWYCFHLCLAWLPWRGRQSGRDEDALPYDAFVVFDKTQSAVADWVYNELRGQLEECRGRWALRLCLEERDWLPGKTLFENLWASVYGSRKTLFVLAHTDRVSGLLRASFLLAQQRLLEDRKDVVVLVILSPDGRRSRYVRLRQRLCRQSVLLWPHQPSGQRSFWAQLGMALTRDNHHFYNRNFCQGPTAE
Assay type: cell-based
Source text: A stable HEK293-Blue-hTLR-9 cell line was purchased from InvivoGen (Cat. #: hkb-htlr9, San Diego, California, USA). These cells were originally designed for studying the stimulation of human TLR9 by monitoring the activation of NF-κB. A SEAP (secreted embryonic alkaline phosphatase) reporter gene was placed under the control of the IFN-β minimal promoter fused to five NF-κB and AP-1-binding sites. The SEAP was induced by activating NF-κB and AP-1 via stimulating HEK-Blue hTLR9 cells with TLR9 ligands. Therefore the reporter expression was declined by TLR9 antagonist under the stimulation of a ligand, such as ODN2006 (Cat. #: tlrl-2006-1, Invivogen, San Diego, California, USA), for incubation of 20 hrs. The cell culture supernatant SEAP reporter activity was determined using QUANTI-Blue™ kit (Cat. #: rep-qb1, Invivogen, San Diego, California, USA) at a wavelength of 640 nm, a detection medium that turns purple or blue in the presence of alkaline phosphatase.
HEK293-Blue-hTLR9 cells were incubated at a density of 250,000˜450,000 cells/mL in a volume of 170 μL in a 96-well plate in Dulbecco's Modified Eagle's medium (DMEM) containing 4.5 g/L glucose, 50 U/mL penicillin, […], 2 mM L-glutamine, 10% (v/v) heat-inactivated fetal bovine serum with addition of 20 μL test compound in a serial dilution in the presence of final DMSO at 1% and 10 μL of 20 uM ODN2006 in above DMEM, perform incubation under 37° C. in a CO2 incubator for 20 hrs. Then 20 μL of the supernatant from each well was incubated with 180 μL Quanti-blue substrate solution at 37° C. for 2 h and the absorbance was read at 620˜655 nm using a spectrophotometer. The signaling pathway that TLR9 activation leads to downstream NF-κB activation has been widely accepted, and therefore similar reporter assay was modified for evaluating TLR9 antagonist.

Row | Structure (SMILES) | pIC50
1 | [2H]c1ccc2c(N3C[C@@H]4C[C@H](Nc5ccc(C[C@@H]6CNCCO6)cc5)CCN4[C@H](C)C3)ccc(C#N)c2n1 [Example 22, 5-[(4R,8R,9aS)-4-methyl-8-[4-[[(2R)-morpholin-2-yl]methyl]anilino]-1,3,4,6,7,8,9,9a-octahydropyrido[1,2-a]pyrazin-2-yl]-2-deuterio-quinoline-8-carbonitrile] | 7.08
2 | C[C@@H]1CN(c2ccc(C#N)c3ncccc23)C[C@@H]2C[C@H](c3ccc(N4CCOC[C@@H](N)C4)nc3)CCN21 [Example 23, 5-[(4R,8R,9aS)-8[6-[(6S)-6-amino-1,4-oxazepan-4-yl]-3-pyridyl]-4-methyl-1,3,4,6,7,8,9,9a-octahydropyrido[1,2-a]pyrazin-2-yl]quinoline-8-carbonitrile] | 7.12
3 | C[C@@H]1CN(c2ccc(C#N)c3ncccc23)C[C@@H]2C[C@@H](c3ccc(C4CNCCO4)cc3)CCN21 (stereo partly drawn) [Example 24, 5-[(4R,8S,9aS)-4-methyl-8-(4-morpholin-2-ylphenyl)-1,3,4,6,7,8,9,9a-octahydropyrido[1,2-a]pyrazin-2-yl]quinoline-8-carbonitrile] | 7.09
4 | C[C@@H]1CN(c2ccc(C#N)c3ncccc23)C[C@@H]2C[C@@H](c3ccc(CC4CNCCO4)cc3)CCN21 (stereo partly drawn) [Example 26, 5-[(4R,8S,9aS)-4-methyl-8-[4-(morpholin-2-ylmethyl)phenyl]-1,3,4,6,7,8,9,9a-octahydropyrido[1,2-a]pyrazin-2-yl]quinoline-8-carbonitrile] | 7.02
5 | C[C@@H]1CN(c2ccc(C#N)c3ncccc23)C[C@@H]2C[C@H](c3ccc([C@@H]4CNCCO4)cc3)CCN21 [Example 27, 5-[(4R,8R,9aS)-4-methyl-8-[4-[(2R)-morpholin-2-yl]phenyl]-1,3,4,6,7,8,9,9a-octahydropyrido[1,2-a]pyrazin-2-yl]quinoline-8-carbonitrile] | 7.14
6 | CO[C@H]1CN(c2ccc(O[C@H]3CCN4[C@@H](C3)CN(c3ccc(C#N)c5ncccc35)C[C@H]4C)cn2)C[C@H]1N [Example 28, 5-[(4R,8S,9aS)-8-[[6-[(3R,4S)-3-amino-4-methoxy-pyrrolidin-1-yl]-3-pyridyl]oxy]-4-methyl-1,3,4,6,7,8,9,9a-octahydropyrido[1,2-a]pyrazin-2-yl]quinoline-8-carbonitrile] | 7.36
7 | [2H]c1ccc2c(N3C[C@@H]4C[C@H](Nc5ccc(C[C@H]6CNCCO6)cc5)CCN4[C@H](C)C3)ccc(C#N)c2n1 [Example 34, 5-[(4R,8R,9aS)-4-methyl-8-[4-[[(2S)-morpholin-2-yl]methyl]anilino]-1,3,4,6,7,8,9,9a-octahydropyrido[1,2-a]pyrazin-2-yl]-2-deuterio-quinoline-8-carbonitrile] | 7.24

Now from value to molecule:

Row | pIC50 | Structure (SMILES)
8 | 7.05 | C[C@@H]1CN(c2ccc(C#N)c3ncccc23)C[C@@H]2C[C@@H](Oc3cncc(N4CCNCC4)c3)CCN21 [Example 29, 5-[(4R,8S,9aS)-4-methyl-8-[(5-piperazin-1-yl-3-pyridyl)oxy]-1,3,4,6,7,8,9,9a-octahydropyrido[1,2-a]pyrazin-2-yl]quinoline-8-carbonitrile]
9 | 7.11 | CO[C@@H]1CN(c2ccc(C3CN([C@@H]4CCN5[C@@H](C4)CN(c4ccc(C#N)c6ncccc46)C[C@H]5C)C3)cc2)C[C@H]1N [Example 30, 5-[(4R,8R,9aS)-8-[3-[4-[(3R,4R)-3-amino-4-methoxy-pyrrolidin-1-yl]phenyl]azetidin-1-yl]-4-methyl-1,3,4,6,7,8,9,9a-octahydropyrido[1,2-a]pyrazin-2-yl]quinoline-8-carbonitrile]
10 | 7.48 | CO[C@H]1CN(c2ccc(C3CN([C@@H]4CCN5[C@@H](C4)CN(c4ccc(C#N)c6ncccc46)C[C@H]5C)C3)cc2)C[C@H]1N [Example 32, 5-[(4R,8R,9aS)-8-[3-[4-[(3R,4S)-3-amino-4-methoxy-pyrrolidin-1-yl]phenyl]azetidin-1-yl]-4-methyl-1,3,4,6,7,8,9,9a-octahydropyrido[1,2-a]pyrazin-2-yl]quinoline-8-carbonitrile]
11 | 7.49 | [2H]c1ccc2c(N3C[C@@H]4C[C@@H](N5CC(c6ccc(N7C[C@@H](N)[C@H](OC)C7)cc6)C5)CCN4[C@H](C)C3)ccc(C#N)c2n1 [Example 36]
12 | 7.47 | [2H]c1ccc2c(N3C[C@@H]4C[C@H](N5CCN(c6ccncc6)CC5)CCN4[C@H](C)C3)ccc(C#N)c2n1 [Example 37, 5-[(4R,8R,9aS)-4-methyl-8-[4-(4-pyridyl)piperazin-1-yl]-1,3,4,6,7,8,9,9a-octahydropyrido[1,2-a]pyrazin-2-yl]-2-deuterio-quinoline-8-carbonitrile]
